Reference: US12655041B2, “Method for operating reverse osmosis membrane device, a slime control method, and a water treatment device” (priority 2021, dated 2026)

Key:
[1] = tested on: slime in a reverse osmosis membrane; assay: Test Example 1: evaluation of slime inhibition in reverse osmosis membrane (membrane fouling simulator, days to 100 kPa differential pressure); parameters: species or system microorganism; conditions: days for differential pressure to reach 100 kPa; substrates ethanol 50 mg/L as C, ammonium chloride 10 mg/L as N, sodium dihydrogen phosphate 0.5 mg/L as P; 25° C.; no chemical added: 8
Protocol: (§1) A substrate was added to raw water, and a biofouling effect of a microorganism was accelerated. Specifically, as substrates, ethanol, ammonium chloride and sodium dihydrogen phosphate were added to raw water so that the concentrations reached 50 mg/L as C, 10 mg/L as N and 0.5 mg/L as P, respectively, thereby producing water to be treated. The pH of the raw water (water to be treated) was 6 to 8, TOC was 1 mg/L, ORP was 300 mV, and the water temperature was 25° C.
This water to be treated was pressurized to 1.5 MPa with a pump and supplied as supply water (the water amount was 100 mL/min, the water pressure was 0.2 MPa, and the water temperature was 25° C.) to a concentrate compartment of an RO membrane device, and an RO membrane treatment was performed. […]
(§2) Upon the evaluation of slime inhibition in a reverse osmosis membrane, the number of days taken for the differential pressure to increase up to 100 kPa under conditions shown in Table 1 was measured using a membrane fouling simulator that is in Non-Patent Literature 1 (J. S. Vrouwenvelder et. al.), and the day where this differential pressure was reached was regarded as a day when biofouling occurred, that is, an occlusion day. It is evaluated that, as the number of days taken until this occlusion increases, slime can be inhibited more favorable.

[2] = tested on: slime in a reverse osmosis membrane; assay: Test Example 4: number of days for the differential pressure to reach 100 kPa; parameters: species or system microorganism; conditions: days for differential pressure to reach 100 kPa; substrates 30 mg/L as C, 10 mg/L as N, 0.5 mg/L as P; 20° C.; no addition: 10
Protocol: as §1
This water to be treated was pressurized to 1.5 MPa with a pump and supplied as supply water (the water amount was 100 mL/min, the water pressure was […], and the water temperature was 25° C.) to a concentrate compartment of an RO membrane device, and an RO membrane treatment was performed. As the RO membrane device, a device in which one vessel was filled with a 4-inch spiral RO membrane element of an aromatic polyamide-based RO membrane (manufactured by Nitto Denko Corporation, ES20) was used. The flow rate of the supply water was 3 to 10 m^3/h per 8-inch spiral module. A change in the differential pressure means a change in the difference of the pressure at each water-passing time after the beginning of measurement from 0 kPa that is a set pressure at the time of the beginning of the measurement.
as §2
A test was performed under the same conditions as in <Test Example 1> except that water to be treated prepared by adding, as substrates, ethanol, ammonium chloride and sodium dihydrogen phosphate to raw water so that the concentrations reached 30 mg/L as C, 10 mg/L as N and 0.5 mg/L as P, respectively, was used, the water temperature of the water to be treated was set and adjusted to 20° C., and the addition periods and addition concentrations of the slime inhibitors were set as shown in Table 2.
The oxidation-based slime inhibitor is continuously added “for 30 minutes”, and the water to be treated containing the chemical is continuously passed through the RO membrane device downstream thereof “for 30 minutes”.
The organic-based slime inhibitor is continuously added “for 30 minutes”, and the water to be treated containing the chemical is continuously passed through the RO membrane device downstream thereof “for 30 minutes”. […]

SMILES | Number of days until occlusion [1] [days] | Number of days until occlusion [2] [days]
Cn1sc(Cl)cc1=O [1-3, 5-chloro-2-methyl-4-isothiazolin-3-one] | 15 | 
O=S(=O)([O-])NCl.[Na+] [4-2, Sodium monochlorosulfamate] |  | 12
O=S(=O)([O-])NCl.[Na+] [4-3, Sodium monochlorosulfamate] |  | 30
Cn1sc(Cl)cc1=O [4-4, 5-chloro-2-methyl-4-isothiazolin-3-one] |  | 32
Cn1sc(Cl)cc1=O [4-5, 5-chloro-2-methyl-4-isothiazolin-3-one] |  | 18
O=S(=O)([O-])NCl.[Na+] [Comparative Example 1-2, Sodium monochlorosulfamate] | 12 | 
